Patent US11292807B2 (OCEANS LTD., priority 2015, dated 2022)
Read-outs that look alike come from different tables or passages of the source.

Experiments:
MDA-MB [1] = settings: MDA-MB
A549 (lung carcinoma) = assay: CIMA assay (colorimetric indicator of metabolic activity), cell viability, A549; settings: for Fold change in viability AVG / In vitro activity against cancer cell lines, A549 AVG: A549
[2] = system: SKOV3 (ovarian adenocarcinoma); assay: CIMA assay, cell viability, SKOV3; settings: for Fold change in viability AVG / In vitro activity against cancer cell lines, SKOV AVG: SKOV
[3] = system: CCD1079SK (fibroblast, noncancerous but proliferating); assay: CIMA assay, cell viability, CCD1079SK; settings: CCD
Experimental: (§1) Stock solutions of the extracts were prepared in dimethylsulfoxide (DMSO) at 10 mg/mL and stored in 200 μl aliquots at −20° C. until analysis. This preparation ensured that the DMSO delivered to cells in culture never exceeded 1%.
(§2) Prepared extracts were assessed following chronic exposure conditions in which cells were seeded at 2×10^3 cells/well (96 well-plate) and incubated with test compounds for 72 h. Each compound was evaluated over a range of concentrations (0, 10, 25, 50 or 100 μg/ml). Cell proliferation was initially assessed using a standard colorimetric indicator of metabolic activity (CIMA) assay. In this assay, tetrazole reduction was evaluated as a measure of metabolic function that evaluates mitochondrial activity to determine the extent of cell proliferation within a culture. This assay is based on the reduction of yellow tetrazolium salt to purple formazan by mitochondrial reductases enzyme in viable cells, resulting in a color changed that confers a change in absorbance.

[4] = CIMA assay, cell viability, CCD1079SK; settings: human, CCD1079SK fibroblasts (noncancerous, proliferating), Average cell viability, CCD
Experimental: as §1, §2

[5] = system: THP-1 (acute monocytic leukemia); assay: CIMA assay, cell viability, THP-1; settings: for Fold change in viability AVG / In vitro activity against cancer cell lines, THP-1 AVG: THP-1
Experimental: as §1, §2

PC3 = assay: CIMA assay, cell viability, PC3; settings: for Fold change in viability AVG / In vitro activity against cancer cell lines, PC3 AVG: PC3
[6] = system: U373 (glioblastoma-astrocytoma); assay: CIMA assay, cell viability, U373; settings: for Fold change in viability AVG / In vitro activity against cancer cell lines, U373 AVG: U373
MDA-MB [7] = assay: cells; settings: Homo sapiens, read-out: Average cell viability, MDA-MB; for viability at 100 µg/mL: 100 ug/mL
[8] = Homo sapiens, A549, read-out: Average cell viability, A549, 100 ug/mL
[9] = Homo sapiens, SK-OV-3, read-out: Average cell viability, SKOV, 100 ug/mL
[10] = Homo sapiens, THP-1, read-out: Average cell viability, THP-1, 100 ug/mL
[11] = Homo sapiens, PC-3, read-out: Average cell viability, PC3, 100 ug/mL
[12] = Homo sapiens, U373 MG, read-out: Average cell viability, U373, 100 ug/mL

SMILES: CCCCCC(O)/C=C/C=C/CCCCCCCC(=O)O (stereo not drawn) [77-31-34-6 A, 13-hydroxyoctadeca-9E,11E-dienoic acid]
- Fold change in viability AVG (MDA-MB [1]; 1.00 ug/mL (so in the source)): 0.13
- In vitro activity against cancer cell lines, MDA-MB AVG (MDA-MB [1]; 100 ug/mL): 0.13
- Fold change in viability AVG (A549 (lung carcinoma); 1.00 ug/mL (so in the source)): 0.08
- In vitro activity against cancer cell lines, A549 AVG (A549 (lung carcinoma); 100 ug/mL): 0.08
- viability at 100 µg/mL (A549 (lung carcinoma); [8]): 7%
- viability at 100 µg/mL [2, 9]: 53%
- Fold change in viability AVG ([2]; 1.00 ug/mL (so in the source)): 0.57
- In vitro activity against cancer cell lines, SKOV AVG ([2]; 100 ug/mL): 0.57
- Fold change in viability AVG ([3]; 1.00 ug/mL (so in the source)): 0.14
- viability at 72 h, 100 ug/mL [4]: 13%
- viability at 100 µg/mL [5, 10]: 6%
- Fold change in viability AVG ([5]; 1.00 ug/mL (so in the source)): 0.07
- In vitro activity against cancer cell lines, THP-1 AVG ([5]; 100 ug/mL): 0.07
- viability at 100 µg/mL (PC3; [11]): 5%
- Fold change in viability AVG (PC3; 1.00 ug/mL (so in the source)): 0.05
- In vitro activity against cancer cell lines, PC3 AVG (PC3; 100 ug/mL): 0.05
- viability at 100 µg/mL [6, 12]: 4%
- Fold change in viability AVG ([6]; 1.00 ug/mL (so in the source)): 0.04
- In vitro activity against cancer cell lines, U373 AVG ([6]; 100 ug/mL): 0.04
- viability at 100 µg/mL (MDA-MB [7]): 12%

SMILES: CCCCCCCCCCCCCCCC(=O)OCC(O)CO (stereo not drawn) [77-38-41-1 B, MAG (C16:0)]
- Fold change in viability AVG (MDA-MB [1]; 50 ug/mL): 0.70
- In vitro activity against cancer cell lines, MDA-MB AVG (MDA-MB [1]; 50 ug/mL): 0.70
- Fold change in viability AVG (MDA-MB [1]; 100 ug/mL): 0.30
- In vitro activity against cancer cell lines, MDA-MB AVG (MDA-MB [1]; 100 ug/mL): 0.30
- Fold change in viability AVG (A549 (lung carcinoma); 50 ug/mL): 0.81
- In vitro activity against cancer cell lines, A549 AVG (A549 (lung carcinoma); 50 ug/mL): 0.81
- Fold change in viability AVG (A549 (lung carcinoma); 100 ug/mL): 0.30
- In vitro activity against cancer cell lines, A549 AVG (A549 (lung carcinoma); 100 ug/mL): 0.30
- viability at 50 µg/mL (A549 (lung carcinoma); Homo sapiens, A549, read-out: Average cell viability, A549, 50 ug/mL): 69%
- viability at 100 µg/mL (A549 (lung carcinoma); [8]): 26%
- viability at 50 µg/mL ([2]; Homo sapiens, SK-OV-3, read-out: Average cell viability, SKOV, 50 ug/mL): 52%
- viability at 100 µg/mL [2, 9]: 22%
- Fold change in viability AVG ([2]; 50 ug/mL): 0.56
- In vitro activity against cancer cell lines, SKOV AVG ([2]; 50 ug/mL): 0.56
- Fold change in viability AVG ([2]; 100 ug/mL): 0.24
- In vitro activity against cancer cell lines, SKOV AVG ([2]; 100 ug/mL): 0.24
- Fold change in viability AVG ([3]; 50 ug/mL): 0.85
- Fold change in viability AVG ([3]; 100 ug/mL): 0.79
- viability at 72 h, 50 ug/mL ([4]; 50 ug/mL): 78%
- viability at 72 h, 100 ug/mL [4]: 72%
- viability at 50 µg/mL ([5]; Homo sapiens, THP-1, read-out: Average cell viability, THP-1, 50 ug/mL): 96%
- viability at 100 µg/mL [5, 10]: 105%
- Fold change in viability AVG ([5]; 50 ug/mL): 1.10
- In vitro activity against cancer cell lines, THP-1 AVG ([5]; 50 ug/mL): 1.10
- Fold change in viability AVG ([5]; 100 ug/mL): 1.19
- In vitro activity against cancer cell lines, THP-1 AVG ([5]; 100 ug/mL): 1.19
- viability at 50 µg/mL (PC3; Homo sapiens, PC-3, read-out: Average cell viability, PC3, 50 ug/mL): 52%
- viability at 100 µg/mL (PC3; [11]): 15%
- Fold change in viability AVG (PC3; 50 ug/mL): 0.54
- In vitro activity against cancer cell lines, PC3 AVG (PC3; 50 ug/mL): 0.54
- Fold change in viability AVG (PC3; 100 ug/mL): 0.16
- In vitro activity against cancer cell lines, PC3 AVG (PC3; 100 ug/mL): 0.16
- viability at 50 µg/mL ([6]; Homo sapiens, U373 MG, read-out: Average cell viability, U373, 50 ug/mL): 13%
- viability at 100 µg/mL [6, 12]: 7%
- Fold change in viability AVG ([6]; 50 ug/mL): 0.13
- In vitro activity against cancer cell lines, U373 AVG ([6]; 50 ug/mL): 0.13
- Fold change in viability AVG ([6]; 100 ug/mL): 0.07
- In vitro activity against cancer cell lines, U373 AVG ([6]; 100 ug/mL): 0.07
- viability at 50 µg/mL (MDA-MB [7]; 50 ug/mL): 64%
- viability at 100 µg/mL (MDA-MB [7]): 28%
